Measurements as given in ChEMBL document CHEMBL6114950, “Diamino variants of piperazine-based tissue transglutaminase inhibitors” (Bioorg Med Chem Lett, 2025).
pKi: −log10 of the molar value. Calls of active or inactive are those of the source. The calls are words filed in the database; no cut-off is given here.

Key:
[1] = Apparent permeability across apical to basolateral side in […] cells; assay type: ADME, cell-based, Canis lupus familiaris; details: dog, MDCK-MDR1
[2] = target: T1, Protein-glutamine gamma-glutamyltransferase (Homo sapiens) (UniProt P21980)
T1 sequence (whole entry): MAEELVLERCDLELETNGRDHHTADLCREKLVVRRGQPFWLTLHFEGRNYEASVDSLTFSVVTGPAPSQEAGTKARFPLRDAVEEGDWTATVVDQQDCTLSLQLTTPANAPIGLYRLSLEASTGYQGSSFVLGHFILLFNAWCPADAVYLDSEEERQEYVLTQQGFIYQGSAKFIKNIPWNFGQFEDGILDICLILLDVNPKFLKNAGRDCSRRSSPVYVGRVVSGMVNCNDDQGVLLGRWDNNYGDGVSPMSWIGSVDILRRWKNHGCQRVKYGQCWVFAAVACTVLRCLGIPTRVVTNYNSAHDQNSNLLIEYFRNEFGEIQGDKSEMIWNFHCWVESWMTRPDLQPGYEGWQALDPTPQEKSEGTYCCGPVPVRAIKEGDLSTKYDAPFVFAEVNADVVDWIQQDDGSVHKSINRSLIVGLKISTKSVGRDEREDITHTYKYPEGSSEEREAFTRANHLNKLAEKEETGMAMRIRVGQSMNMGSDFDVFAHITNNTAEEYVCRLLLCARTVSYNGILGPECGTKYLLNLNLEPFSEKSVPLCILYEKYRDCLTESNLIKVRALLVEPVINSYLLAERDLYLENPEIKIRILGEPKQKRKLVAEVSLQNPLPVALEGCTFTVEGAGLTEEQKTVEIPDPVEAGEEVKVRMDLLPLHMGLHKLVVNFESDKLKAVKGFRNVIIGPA
Description: Irreversible inhibition of recombinant human TG2 assessed as inactivation constant using Cbz-Glu(gamma-p-nitrophenyl ester)Gly as a substrate by continuous colorimetric assay

[3] = Apparent permeability across basolateral to apical side in […] cells; assay type: ADME, cell-based, Canis lupus familiaris; details: dog, MDCK-MDR1
[4] = target: T2, Protein-glutamine gamma-glutamyltransferase (Homo sapiens, UniProt P21980); assay: Irreversible inhibition of recombinant human TG2 assessed as inhibition constant using Cbz-Glu(gamma-p-nitrophenyl ester)Gly as a substrate by continuous colorimetric assay
T2 sequence (P21980 whole entry): T1 sequence (whole entry)

[5] = Efflux ratio of apparent permeability in MDCK-MDR1 cells; assay type: ADME, cell-based, Canis lupus familiaris; details: dog
[6] = target: T1, Protein-glutamine gamma-glutamyltransferase (Homo sapiens); assay: Irreversible inhibition of recombinant human TG2 assessed as inactivation constant using Cbz-Glu(gamma-p-nitrophenyl ester)Gly as a substrate at upto 100 uM by continuous colorimetric assay
[7] = target: T1, Protein-glutamine gamma-glutamyltransferase (Homo sapiens); assay: Irreversible inhibition of recombinant human TG2 assessed as Kinact/Ki using Cbz-Glu(gamma-p-nitrophenyl ester)Gly as a substrate at upto 100 uM by continuous colorimetric assay
[8] = target: T1, Protein-glutamine gamma-glutamyltransferase (Homo sapiens); assay: Irreversible inhibition of recombinant human TG2 assessed as inhibition constant using Cbz-Glu(gamma-p-nitrophenyl ester)Gly as a substrate at upto 100 uM by continuous colorimetric assay

| Papp A→B [1] | Kinact [2] | Papp B→A [3] | pKi [4] | efflux ratio [5] | inactivation constant (kinact) [6] | kinact/Ki [7] | inhibition constant (Ki) [8] | Compound |
| --- | --- | --- | --- | --- | --- | --- | --- | --- |
| 27.2 ×10⁻⁶ cm/s | 1.5 min⁻¹ | 34.3 ×10⁻⁶ cm/s | 5.55 | 1.27 |  |  |  | C=CC(=O)NCC(=O)N1CCN(C(=O)C23CC4CC(CC(C4)C2)C3)CC1 |
|  |  |  |  |  | inactive | inactive | inactive | C=CC(=O)NCC(=O)NC1CN(C(=O)C23CC4CC(CC(C4)C2)C3)C1 |
|  |  |  |  |  | inactive | inactive | inactive | C=CC(=O)NCC(=O)NCCNC(=O)C12CC3CC(CC(C3)C1)C2 |
| 19.7 ×10⁻⁶ cm/s |  | 39 ×10⁻⁶ cm/s |  |  |  |  |  | C=CC(=O)N(C)CC(=O)N1CCN(C(=O)C23CC4CC(CC(C4)C2)C3)CC1 |
|  |  |  |  |  | inactive | inactive | inactive | C=CC(=O)NCC(=O)NCCCCCNC(=O)C12CC3CC(CC(C3)C1)C2 |
|  | 0.72 min⁻¹ |  | 3.95 |  |  |  |  | C=CC(=O)NCC(=O)N1CCC2(CC1)CCN(C(=O)C13CC4CC(CC(C4)C1)C3)C2 |
|  | 0.67 min⁻¹ |  | 3.94 |  |  |  |  | C=CC(=O)NCC(=O)N1CCC[C@@H](NC(=O)C23CC4CC(CC(C4)C2)C3)C1 |
|  |  |  |  |  | inactive | inactive | inactive | C=CC(=O)NCC(=O)NC1CCC(NC(=O)C23CC4CC(CC(C4)C2)C3)CC1 (configuration not stated) |
|  |  |  |  |  | inactive | inactive | inactive | C=CC(=O)NCC(=O)N1CC2(CCN(C(=O)C34CC5CC(CC(C5)C3)C4)CC2)C1 |
|  |  |  |  |  | inactive | inactive | inactive | C=CC(=O)NCC(=O)N1CCC2(CC1)CCN(C(=O)C13CC4CC(CC(C4)C1)C3)CC2 |
|  |  |  |  |  | inactive | inactive | inactive | C=CC(=O)NCC(=O)NCCCNC(=O)C12CC3CC(CC(C3)C1)C2 |
